Results reported in ChEMBL document CHEMBL1201862, “PubChem BioAssay data set” (2004).
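Briefly, cells in 96-well plates were exposed to five compound concentrations for 48 h, and endpoints were estimated by linear interpolation. At the GI50, growth is halved.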 Calls of active or inactive are those of the source. Cut-off read from the data, not from the text of the source: active = GI50 up to about 1.1 µM and inactive = higher.

Key:
Assay in all cases: NCI anticancer screen, dose series, 48 h
786-0 = tested on: 786-0
CCRF-CEM = tested on: CCRF-CEM
DU-145 = tested on: DU-145
HCT-15 = tested on: HCT-15
HL-60 = tested on: HL-60
HOP-62 = tested on: HOP-62
HT-29 = tested on: HT-29
K562 = tested on: K562
LOX IMVI = tested on: LOX IMVI
MCF7 = tested on: MCF7
RPMI-8226 = tested on: RPMI-8226
RXF 393 = tested on: RXF 393
SNB-19 = tested on: SNB-19
SW-620 = tested on: SW-620
U-251 = tested on: U-251
OVCAR-3 = tested on: OVCAR-3
SF-539 = tested on: SF-539
SNB-75 = tested on: SNB-75
COLO 205 = tested on: COLO 205
NCI-H522 = tested on: NCI-H522

SMILES | GI50 (786-0) | GI50 (CCRF-CEM) | GI50 (DU-145) | GI50 (HCT-15) [µM] | GI50 (HL-60) | GI50 (HOP-62) | GI50 (HT-29) | GI50 (K562) | GI50 (LOX IMVI) | GI50 (MCF7) | GI50 (RPMI-8226) | GI50 (RXF 393) | GI50 (SNB-19) | GI50 (SW-620) | GI50 (U-251) | GI50 (OVCAR-3) | GI50 (SF-539) | GI50 (SNB-75) | GI50 (COLO 205) | GI50 (NCI-H522)
CC1CC/C(=C\c2ccc(F)cc2)C2=C1C(c1ccc(F)cc1)n1c(s/c(=C\c3ccc(Cl)cc3)c1=O)=N2 (stereo not drawn) | > 100 µM (inactive) | > 100 µM (inactive) | > 100 µM (inactive) | > 100 | > 100 µM (inactive) | > 100 µM (inactive) | > 100 µM (inactive) | > 100 µM (inactive) | > 100 µM (inactive) | > 100 µM (inactive) | > 100 µM (inactive) | > 100 µM (inactive) | > 100 µM (inactive) | > 100 µM (inactive) | > 100 µM (inactive) | – | – | – | – | –
COC1/C=C(C)/C=C/C(C)/C=C/C(=O)OC(/C(C)=C/C=C(\C)CNC(=O)[C@H](CO)NC=O)C(C)/C=C/C=C/C(OC)CC/C=C(C)/C=C/C1 (stereo partly drawn) | 0.0288 µM (active) | 0.0474 µM (active) | > 0.312 µM (active) | 0.111 | 0.0225 µM (active) | 0.0224 µM (active) | 0.0125 µM (active) | 0.0192 µM (active) | 0.0265 µM (active) | 0.052 µM (active) | 0.0215 µM (active) | 0.158 µM (active) | > 1 µM (active) | 0.0469 µM (active) | 0.0673 µM (active) | 0.039 µM (active) | 0.0281 µM (active) | > 1 µM (active) | – | –
CCOC(=N)n1c(=O)n(C2=NCCN2)c2ccccc21 | > 100 µM (inactive) | > 100 µM (inactive) | > 100 µM (inactive) | > 100 | > 100 µM (inactive) | > 100 µM (inactive) | > 100 µM (inactive) | > 100 µM (inactive) | > 100 µM (inactive) | > 100 µM (inactive) | – | > 100 µM (inactive) | > 100 µM (inactive) | > 100 µM (inactive) | > 100 µM (inactive) | > 100 µM (inactive) | > 100 µM (inactive) | 31.2 µM (inactive) | > 100 µM (inactive) | > 100 µM (inactive)
O=C(O)C(Cc1cccs1)C(=O)O | > 100 µM (inactive) | > 100 µM (inactive) | > 100 µM (inactive) | > 100 | > 100 µM (inactive) | > 100 µM (inactive) | > 100 µM (inactive) | > 100 µM (inactive) | > 100 µM (inactive) | > 100 µM (inactive) | > 100 µM (inactive) | > 100 µM (inactive) | > 100 µM (inactive) | > 100 µM (inactive) | > 100 µM (inactive) | > 100 µM (inactive) | – | > 100 µM (inactive) | > 100 µM (inactive) | > 100 µM (inactive)
Cc1c(Cl)c(S(N)(=O)=O)cc(S(N)(=O)=O)c1NC(=O)c1ccc(Cl)cc1 | > 100 µM (inactive) | > 100 µM (inactive) | > 100 µM (inactive) | > 100 | > 100 µM (inactive) | > 100 µM (inactive) | > 100 µM (inactive) | > 100 µM (inactive) | > 100 µM (inactive) | > 100 µM (inactive) | > 100 µM (inactive) | > 100 µM (inactive) | > 100 µM (inactive) | > 100 µM (inactive) | > 100 µM (inactive) | > 100 µM (inactive) | – | > 100 µM (inactive) | > 100 µM (inactive) | > 100 µM (inactive)
CCN1CCCc2cc3c(C(F)(F)F)cc(=O)oc3cc21 | 39.4 µM (inactive) | – | > 100 µM (inactive) | > 100 | 0.0258 µM (active) | > 100 µM (inactive) | 48.8 µM (inactive) | 63.8 µM (inactive) | 82.2 µM (inactive) | 56.2 µM (inactive) | – | 20.6 µM (inactive) | > 100 µM (inactive) | > 100 µM (inactive) | > 100 µM (inactive) | 33 µM (inactive) | > 100 µM (inactive) | 42.5 µM (inactive) | 63.8 µM (inactive) | 55.5 µM (inactive)
